One assay deals with Vγ9Vδ2 T-cells. Kind of assay: Ex-vivo expansion of Vγ9Vδ2 T-cells from PBMC. In kind it is cell-based, human. As for the experimental part:
To enrich these cells, peripheral blood mononuclear cells (PBMC) were activated with ZA and cultured in AB serum-containing RPMI 1640 medium, supplemented with IL-2/IL-15. Specifically, PBMC isolated from normal (healthy) donors (n=21 separate donors) and from patients with EOC (n=13 separate donors) were cultured with ZA (1 μg/ml day 1 only), IL-2 (100 U/ml) and IL-15 (10 ng/ml). Cytokines and medium were added daily.
Isolated PBMC cells were then reconstituted in GMP TexMACS Media (Miltenyi) at 3×10^6 cell/mL. To the reconstituted cells, 1 μg/mL Zoledronic Acid (Zometa, Novartis) was added as an activator, together with 100 U/mL IL-2 and 5 ng/mL TGF-β. The cells were incubated at 37° C. in air containing 5% carbon dioxide.
On day 3, cells were fed with 100 U/mL IL-2 and 5 ng/mL TGF-β. Thereafter, on days 4, 7, 9, 11, 13, 15, cells were counted by trypan exclusion using a hemocytometer. If the number of T-cells was less than 1×10^6 cells/mL, a further 100 U/mL IL-2 and 5 ng/mL TGF-β were added. If the number of T-cells was between 1×10^6 and 2×10^6 cells/mL, an equivalent volume of TexMACS medium was added together with 100 U/mL IL-2 and 5 ng/mL TGF-β. If the number of T-cells was greater than 2×10^6 […], double the volume of TexMACS media was added together with 100 U/mL IL-2 and 5 ng/mL TGF-β.
After 15 days, the cells were analyzed by flow cytometry with a pan γδ antibody to confirm the enrichment of γδ T-cells in these cultures.
The methodology of Example 1 above was repeated using a different basic medium, specifically RPMI+human AB serum. In particular, PBMC (3×10^6 cells/ml) were cultured in RPMI+10% human AB serum containing zoledronic acid (1 μg/ml)+IL-2 (100 U/ml; method 1) or zoledronic acid (1 μg/ml)+IL-2 (100 U/ml)+TGF-β (5 ng/ml; method 2). The percentage of γδ T-cells present in each culture was evaluated on the day of initiation of the cultures (day 1) and after a further 14 days (day 15) and the results are shown in FIG. 9B.

For assay [1], the system named is U937 tumor cells or KG-1 tumor cells. Put plainly: Cytotoxicity assay (luciferase) with cytarabine-pulsed tumor cells, 1:1 effector:target. In kind it is cell-based. The settings on record: sub-lethal doses, 24 h pulse before T-cells. As for the experimental part: Cytotoxicity assays were established in triplicate at a 1:1 effector:target ratio in 96 well plates containing either U937 tumor cells or KG-1 tumor cells. Where indicated, tumor cells were pulsed for 24 h with the indicated concentrations of cytarabine, prior to addition of γδ T-cells, produced either using the method of the invention (M2) or the method of the comparative example (M1) above. There were three donors for the M2 cells and two donors for the M1 cells. A control group received no cytarabine.
Residual tumor cell viability was measured after overnight co-culture with Vγ9Vδ2 T-cells by luciferase assay.

With TGF-β, the “cell expansion on addition of TGF-β” value in the assay with Vγ9Vδ2 T-cells (RPMI + 10% human AB serum, ZA + IL-2, 5 ng/ml TGF-β, day 15) was “enhanced cell expansion”. Further, the “yield of Vγ9Vδ2 T-cells on addition of TGF-β” value in the assay on Vγ9Vδ2 T-cells (TexMACS medium, ZA + IL-2, 5 ng/mL TGF-β, 15 days) was “substantially enhanced yields”. Take `Nc1ccn([C@@H]2O[C@H](CO)[C@@H](O)[C@@H]2O)c(=O)n1` [cytarabine]: in assay [1], the “effect of cytarabine on anti-tumor activity of method 2 Vγ9Vδ2 T-cells” value is “potentiated the anti-tumor activity”. As to “IL-15: cytokine supplement (10 ng/ml) in comparative expansion”, the “yield of cells on addition of IL-15” value with Vγ9Vδ2 T-cells (RPMI 1640 with AB serum, ZA + IL-2, IL-15 10 ng/ml) was “no significant difference”.
